For one compound, inhibition efficiency order results are on record in patent EP0590721A1, “Method for expressing receptors of the human nervous system in the yeast Schizosaccharomyces pombe” (ENICHEM S.p.A., priority 1992, dated 1994).

The target of the data set is chimeric protein STE2-β₂AR (Homo sapiens, UniProt P07550). As to conditions: (125I)-CYP 20 pM, competitor 10⁻⁹ M to 10⁻³ M, 37°C one hour, TNE.

With `CNC[C@H](O)c1ccc(O)c(O)c1` [epinephrine], the inhibition efficiency order entry is listed as “alprenolol > isoproterenol > epinephrine”.
